The source made the active and inactive calls. The calls are words filed in the database; no cut-off is given here.
Legend:
SH-SY5Y [1] = assay: Increase in cell viability of SH-SY5Y cells in serum starved conditions at 10 ug/mL after 48 hrs by MTT assay relative to control; type: functional, Homo sapiens
SH-SY5Y [2] = assay: Increase in cell viability of SH-SY5Y cells in serum starved conditions at 20 ug/mL after 48 hrs by MTT assay relative to control; type: functional, Homo sapiens
SH-SY5Y [3] = assay: Increase in cell viability of SH-SY5Y cells in serum starved conditions at 30 ug/mL after 48 hrs by MTT assay relative to control; type: functional, Homo sapiens
SH-SY5Y [4] = assay: Inhibition of 1 mM sodium nitroprusside-induced cell death in SH-SY5Y cells assessed as increase in cell viability at 30 ug/mL after 24 hrs by MTT assay relative to control; type: functional, Homo sapiens
SH-SY5Y [5] = assay: Inhibition of 3 mM sodium nitroprusside-induced cell death in SH-SY5Y cells assessed as increase in cell viability at 30 ug/mL after 24 hrs by MTT assay relative to control; type: functional, Homo sapiens
SH-SY5Y [6] = assay: Inhibition of 5 mM sodium nitroprusside-induced cell death in SH-SY5Y cells assessed as increase in cell viability at 30 ug/mL after 24 hrs by MTT assay relative to control; type: functional, Homo sapiens
SH-SY5Y [7] = assay: Inhibition of 2 mM paraquat-induced cell death in SH-SY5Y cells assessed as increase in cell viability at 10 ug/mL after 24 hrs by MTT assay relative to control; type: functional, Homo sapiens
SH-SY5Y [8] = assay: Inhibition of 2 mM paraquat-induced cell death in SH-SY5Y cells assessed as increase in cell viability at 20 ug/mL after 24 hrs by MTT assay relative to control; type: functional, Homo sapiens
SH-SY5Y [9] = assay: Reduction of sodium nitroprusside-induced cell death in SH-SY5Y cells assessed as subG1 DNA content relative to control; type: functional, cell-based; settings: Homo sapiens
SH-SY5Y [10] = assay: Reduction of paraquat-induced cell death in SH-SY5Y cells assessed as subG1 DNA content relative to control; type: functional, cell-based; settings: Homo sapiens
Caspase-3 (Homo sapiens) [11] = molecular target: T1, Caspase-3 (Homo sapiens) (UniProt P42574); assay: Decrease in sodium nitroprusside-induced caspase-3 activity in SH-SY5Y cells; type: cell-based
T1 sequence (whole entry): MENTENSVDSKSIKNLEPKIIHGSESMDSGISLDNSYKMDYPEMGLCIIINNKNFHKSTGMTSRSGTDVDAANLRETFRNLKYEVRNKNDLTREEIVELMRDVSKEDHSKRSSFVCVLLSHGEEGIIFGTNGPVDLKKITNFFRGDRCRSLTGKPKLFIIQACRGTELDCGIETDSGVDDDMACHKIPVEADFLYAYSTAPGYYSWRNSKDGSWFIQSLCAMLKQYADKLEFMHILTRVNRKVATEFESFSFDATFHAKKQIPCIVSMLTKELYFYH

Caspase-9 (Homo sapiens) [12] = molecular target: T2, Caspase-9 (Homo sapiens) (UniProt P55211); assay: Decrease in sodium nitroprusside-induced caspase 9 activity in SH-SY5Y cells; type: cell-based
T2 sequence (whole entry): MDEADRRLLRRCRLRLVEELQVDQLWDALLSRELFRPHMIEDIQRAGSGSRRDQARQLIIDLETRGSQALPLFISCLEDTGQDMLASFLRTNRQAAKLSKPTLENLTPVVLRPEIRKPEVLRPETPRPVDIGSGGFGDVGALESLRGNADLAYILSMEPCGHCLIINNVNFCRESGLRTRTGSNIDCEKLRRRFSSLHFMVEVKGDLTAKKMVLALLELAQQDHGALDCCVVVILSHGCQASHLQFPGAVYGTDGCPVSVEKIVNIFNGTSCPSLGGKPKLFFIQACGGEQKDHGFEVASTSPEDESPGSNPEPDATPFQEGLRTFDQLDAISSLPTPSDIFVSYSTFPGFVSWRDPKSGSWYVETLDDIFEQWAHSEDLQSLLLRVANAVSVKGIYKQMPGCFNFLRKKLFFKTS

SH-SY5Y [13] = assay: Reduction on sodium nitroprusside-induced ROS production in SH-SY5Y cells; type: functional, Homo sapiens; set-up: scale not given: the % may be the effect or the level left
SH-SY5Y [14] = assay: Reduction on paraquat-induced ROS production in SH-SY5Y cells; type: functional, Homo sapiens; set-up: scale not given: the % may be the effect or the level left
SH-SY5Y [15] = assay: Effect on sodium nitroprusside-induced intracellular calcium level in SH-SY5Y cells after 8 hrs relative to control; type: functional, Homo sapiens
SH-SY5Y [16] = assay: Effect on sodium nitroprusside-induced intracellular calcium level in SH-SY5Y cells after 25 hrs relative to control; type: functional, Homo sapiens
SH-SY5Y [17] = assay: Reduction of nitric oxide-induced intracellular calcium level in SH-SY5Y cells; type: functional, cell-based; settings: Homo sapiens
SH-SY5Y [18] = assay: Effect on 2 mM paraquat-induced intracellular calcium level in SH-SY5Y cells after 8 hrs relative to control; type: functional, Homo sapiens
SH-SY5Y [19] = assay: Effect on 2 mM paraquat-induced intracellular calcium level in SH-SY5Y cells after 24 hrs relative to contro; type: functional, Homo sapiens
SH-SY5Y [20] = assay: Effect on 3 mM sodium nitroprusside-induced mitochondrial transmembrane potential level in SH-SY5Y cells after 8 hrs; type: functional, Homo sapiens
SH-SY5Y [21] = assay: Effect on 3 mM sodium nitroprusside-induced mitochondrial transmembrane potential level in SH-SY5Y cells after 24 hrs; type: functional, Homo sapiens
SH-SY5Y [22] = assay: Inhibition of 2 mM paraquat-induced cell death in SH-SY5Y cells assessed as increase in cell viability at 30 ug/mL after 24 hrs by MTT assay relative to control; type: functional, Homo sapiens
Caspase-3 (Homo sapiens) [23] = molecular target: T1, Caspase-3 (Homo sapiens); assay: Decrease in paraquat-induced caspase-3 activity in SH-SY5Y cells; type: cell-based
Caspase-9 (Homo sapiens) [24] = molecular target: T2, Caspase-9 (Homo sapiens); assay: Decrease in paraquat-induced caspase 9 activity in SH-SY5Y cells; type: cell-based
SH-SY5Y [25] = assay: Reduction of sodium nitroprusside-induced nitric oxide production in SH-SY5Y cells; type: functional, cell-based; settings: Homo sapiens

Structure (SMILES): Oc1ccc([C@H]2Oc3cc(O)cc([C@@H]4[C@H](c5cc(O)cc(O)c5)[C@@H](c5ccc(O)cc5)O[C@H]4c4ccc(O)cc4)c3[C@@H]2c2cc(O)c3c(c2)[C@@H](c2cc(O)cc(O)c2)[C@H](c2ccc(O)cc2)O3)cc1 [KOBOPHENOL A]
- Activity (SH-SY5Y [1]): 105.7%
- Activity (SH-SY5Y [2]): 91.4%
- Activity (SH-SY5Y [3]): 78.7%
- Activity (SH-SY5Y [4]): 108.6%
- Activity (SH-SY5Y [5]): 109.8%
- Activity (SH-SY5Y [6]): 88.1%
- Activity (SH-SY5Y [7]): 66.3%
- Activity (SH-SY5Y [8]): 85.6%
- Activity (SH-SY5Y [9]): Active
- Activity (SH-SY5Y [10]): Active
- Activity (Caspase-3 (Homo sapiens) [11]): Dose-dependent effect
- Activity (Caspase-9 (Homo sapiens) [12]): Dose-dependent effect
- Activity (SH-SY5Y [13]): 103.4%
- Activity (SH-SY5Y [14]): 103.6%
- Activity (SH-SY5Y [15]): 96.1%
- Activity (SH-SY5Y [16]): 96.1%
- Activity (SH-SY5Y [17]): Active
- Activity (SH-SY5Y [18]): 99.1%
- Activity (SH-SY5Y [19]): 98.3%
- Activity (SH-SY5Y [20]): 128.3%
- Activity (SH-SY5Y [21]): 119.3%
- Activity (SH-SY5Y [22]): 102.5%
- Activity (Caspase-3 (Homo sapiens) [23]): Active
- Activity (Caspase-9 (Homo sapiens) [24]): Dose-dependent effect
- Activity (SH-SY5Y [25]): inactive

Reference: ChEMBL document CHEMBL1144615, “Neuroprotective effects of kobophenol A against the withdrawal of tropic support, nitrosative stress, and mitochondrial damage in SH-SY5Y neuroblastoma cells” (2007)
